Results reported in patent publication US20240409585A1, “MACROCYCLIC IMMUNOMODULATORS” (priority 2021, published 2024).
Bridge positions count the residues as written; N and C are the ends. Square brackets hold non-standard residues; d marks the D form. Peptide text beside a SMILES is read from it. * marks the point of attachment. ξ: configuration not given here. Tyr(3-NO2) = N[C@@H](Cc1ccc(O)c([N+](=O)[O-])c1)C(=O)O; Phe(4-COOH) = N[C@@H](Cc1ccc(C(=O)O)cc1)C(=O)O; Bip = N[C@@H](Cc1ccc(-c2ccccc2)cc1)C(=O)O; Phe(3-CN) = N#Cc1cccc(C[C@H](N)C(=O)O)c1; Phe(3-Me) = Cc1cccc(C[C@H](N)C(=O)O)c1; Val(3-OH) = CC(C)(O)[C@H](N)C(=O)O; h4Pal = N[C@@H](CCc1ccncc1)C(=O)O; 4Pal = N[C@@H](Cc1ccncc1)C(=O)O; 3Thi = N[C@@H](Cc1ccsc1)C(=O)O; Cha = N[C@@H](CC1CCCCC1)C(=O)O; Cit = NC(=O)NCCC[C@H](N)C(=O)O; Ile(3ξ) = CCC(C)[C@H](N)C(=O)O; Thr(3ξ) = CC(O)[C@H](N)C(=O)O; NMeNle = CCCC[C@H](NC)C(=O)O; Carboxymethyl = O=C(O)C*; NMeA = CN[C@@H](C)C(=O)O; Orn = NCCC[C@H](N)C(=O)O; dNMeA = CN[C@H](C)C(=O)O; Dab = NCC[C@H](N)C(=O)O; Dap = NC[C@H](N)C(=O)O; NH(CH2)3NH2 = NCCCN*

Target: T1, PE-labeled human PD-L1-Ig binding to Jurkat cell line over-expressing human PD-1 (Jurkat-PD-1) (Homo sapiens, UniProt Q15116)
T1 construct: expressed in transfected cells; host or cells: Jurkat
Assay: Jurkat-PD-1 Cell Binding High-Content Screening Assay (CBA): Method 1
Settings: Jurkat-hPD-1 cells, PE-labeled PD-L1-Ig 20 nM final; read-out: Jurkat HPDL1 PD1 IC50 (uM) (Method 1)

T1 sequence (Q15116 25-288): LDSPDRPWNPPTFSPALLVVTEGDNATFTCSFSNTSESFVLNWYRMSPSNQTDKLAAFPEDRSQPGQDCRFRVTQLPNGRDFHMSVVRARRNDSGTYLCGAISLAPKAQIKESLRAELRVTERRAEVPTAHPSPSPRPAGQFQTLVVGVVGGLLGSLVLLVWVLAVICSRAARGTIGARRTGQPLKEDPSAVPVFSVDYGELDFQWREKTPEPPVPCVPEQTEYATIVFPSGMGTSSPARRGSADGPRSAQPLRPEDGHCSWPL

Row | SMILES | IC50 [µM]
1 | CCCC[C@H]1C(=O)N[C@@H](Cc2ccc(C(=O)O)cc2)C(=O)N[C@@H](CC(=O)O)C(=O)N[C@@H](Cc2c[nH]c3ccccc23)C(=O)N[C@@H](C(C)C)C(=O)N[C@@H](Cc2ccc(-c3ccccc3)cc2)C(=O)N[C@@H](C(C)O)C(=O)N(C)[C@@H](C)C(=O)N[C@H](CC(C)C)C(=O)N[C@@H](CCN)C(=O)N[C@@H](CC2CCCCC2)C(=O)N[C@@H](C(C)C)C(=O)N[C@@H](C(C)O)C(=O)N[C@H](C(=O)N[C@@H](CCN)C(N)=O)CSCC(=O)N1C (stereo partly drawn) [Compound 2206] ({CH2CO}-[NMeNle][Phe(4-COOH)]DWV[Bip][Thr(3ξ)][NMeA][dL][Dab][Cha]V[Thr(3ξ)]C[Dab]-NH2; thioether N-14) | 0.04
2 | CCC(C)[C@@H]1NC(=O)[C@H](Cc2ccc(-c3ccccc3)cc2)NC(=O)[C@H](C(C)C)NC(=O)[C@H](Cc2c[nH]c3ccccc23)NC(=O)[C@H](CC(=O)O)NC(=O)[C@H](Cc2ccc(O)cc2)NC(=O)[C@H](Cc2ccsc2)NC(=O)CSC[C@@H](C(=O)NCCCN)NC(=O)[C@H](C(C)O)NC(=O)[C@H](C(C)(C)O)NC(=O)[C@H](CC2CCCCC2)NC(=O)[C@H](CC(N)=O)NC(=O)[C@@H](CC(C)C)NC(=O)[C@H](C)N(C)C1=O (stereo partly drawn) [Compound 2247] ({CH2CO}-[3Thi]YDWV[Bip][Ile(3ξ)][NMeA][dL]N[Cha][Val(3-OH)][Thr(3ξ)]C-{NH(CH2)3NH2}; thioether N-14) | 0.06
3 | CC[C@H](C)[C@@H]1NC(=O)[C@H](Cc2ccc(-c3ccccc3)cc2)NC(=O)[C@H](C(C)C)NC(=O)[C@H](Cc2c[nH]c3ccccc23)NC(=O)[C@H](CC(=O)O)NC(=O)[C@H](Cc2ccc(O)c([N+](=O)[O-])c2)NC(=O)[C@H](CN)NC(=O)CSC[C@@H](C(=O)N[C@@H](C)C(N)=O)NC(=O)[C@H]([C@@H](C)O)NC(=O)[C@H](C(C)C)NC(=O)[C@H](CC(C)C)NC(=O)[C@H](CCN)NC(=O)[C@@H](CC(C)C)NC(=O)[C@H](C)N(C)C1=O [Compound 1409] ({CH2CO}-[Dap][Tyr(3-NO2)]DWV[Bip]I[NMeA][dL][Dab]LVTCA-NH2; thioether N-14) | 0.04
4 | Cc1cccc(C[C@@H]2NC(=O)[C@H](CC(=O)O)NC(=O)[C@H](CCc3ccncc3)NC(=O)[C@H](CN)NC(=O)CSC[C@@H](C(=O)N[C@@H](C)C(N)=O)NC(=O)[C@H]([C@@H](C)O)NC(=O)[C@H](C(C)C)NC(=O)[C@H](CC(C)C)NC(=O)[C@H](CCN)NC(=O)[C@@H](CC(C)C)NC(=O)[C@H](C)N(C)C(=O)[C@H](CCCNC(N)=O)NC(=O)[C@H](Cc3ccc(-c4ccccc4)cc3)NC(=O)[C@H](C(C)C)NC2=O)c1 [Compound 1547] ({CH2CO}-[Dap][h4Pal]D[Phe(3-Me)]V[Bip][Cit][NMeA][dL][Dab]LVTCA-NH2; thioether N-14) | 0.01
5 | Cc1cccc(C[C@@H]2NC(=O)[C@H](CC(=O)O)NC(=O)[C@H](Cc3ccc(O)cc3)NC(=O)[C@H](CC(N)=O)NC(=O)CSC[C@@H](C(=O)N[C@@H](CCN)C(N)=O)NC(=O)[C@H]([C@@H](C)O)NC(=O)[C@H](C(C)C)NC(=O)[C@H](CC3CCCCC3)NC(=O)[C@H](CCN)NC(=O)[C@@H](CC(C)C)NC(=O)[C@H](C)N(C)C(=O)[C@H](CCCNC(N)=O)NC(=O)[C@H](Cc3ccc(-c4ccccc4)cc3)NC(=O)[C@H](C(C)(C)O)NC2=O)c1 [Compound 1703] ({CH2CO}-NYD[Phe(3-Me)][Val(3-OH)][Bip][Cit][NMeA][dL][Dab][Cha]VTC[Dab]-NH2; thioether N-14) | 0.02
6 | Cc1cccc(C[C@@H]2NC(=O)[C@H](CC(=O)O)NC(=O)[C@H](Cc3ccc(OCC(=O)O)cc3)NC(=O)[C@H](Cc3ccncc3)NC(=O)CSC[C@@H](C(=O)N[C@@H](CCN)C(N)=O)NC(=O)[C@H](C(C)O)NC(=O)[C@H](C(C)(C)O)NC(=O)[C@H](CC3CCCCC3)NC(=O)[C@H](CCN)NC(=O)[C@@H](CC(C)C)NC(=O)[C@H](C)N(C)C(=O)[C@H](Cc3ccc(OCC(=O)O)cc3)NC(=O)[C@H](Cc3ccc(-c4ccccc4)cc3)NC(=O)[C@H](Cc3ccc(C(=O)O)cc3)NC2=O)c1 (stereo partly drawn) [Compound 2146] ({CH2CO}-[4Pal]Y(Carboxymethyl)D[Phe(3-Me)][Phe(4-COOH)][Bip]Y(Carboxymethyl)[NMeA][dL][Dab][Cha][Val(3-OH)][Thr(3ξ)]C[Dab]-NH2; thioether N-14) | 0.01
7 | Cc1cccc(C[C@@H]2NC(=O)[C@H](CC(=O)O)NC(=O)[C@H](Cc3ccc(OCC(=O)O)cc3)NC(=O)[C@H](C(C)O)NC(=O)CSC[C@@H](C(N)=O)NC(=O)[C@H](CO)NC(=O)[C@H](C(C)(C)O)NC(=O)[C@H](CC3CCCCC3)NC(=O)[C@H](CCN)NC(=O)[C@@H](CC(C)C)NC(=O)[C@H](C)N(C)C(=O)[C@H](Cc3ccc(OCC(=O)O)cc3)NC(=O)[C@H](Cc3ccc(-c4ccccc4)cc3)NC(=O)[C@H](Cc3ccc(C(=O)O)cc3)NC2=O)c1 (stereo partly drawn) [Compound 2264] ({CH2CO}-[Thr(3ξ)]Y(Carboxymethyl)D[Phe(3-Me)][Phe(4-COOH)][Bip]Y(Carboxymethyl)[NMeA][dL][Dab][Cha][Val(3-OH)]SC-NH2; thioether N-14) | 0.09
8 | CC(C)C[C@@H]1NC(=O)[C@H](Cc2c[nH]c3ccccc23)NC(=O)[C@H](CC(=O)O)NC(=O)[C@H](Cc2ccc(O)cc2)NC(=O)[C@H](Cc2ccccc2)NC(=O)CSC[C@@H](C(=O)NCC(N)=O)NC(=O)[C@H](CO)NC(=O)[C@H](C(C)C)NC(=O)[C@H](CC(C)C)NC(=O)[C@H](CC(N)=O)NC(=O)CNC(=O)[C@@H](C)N(C)C(=O)[C@H](C(C)C)NC(=O)[C@H](Cc2ccc(-c3ccccc3)cc2)NC1=O [Compound 1721] ({CH2CO}-FYDWL[Bip]V[dNMeA]GNLVSCG-NH2; thioether N-14) | 0.24
9 | CC(C)C[C@@H]1NC(=O)[C@H](CCCNC(=N)N)NC(=O)[C@@H](CC(C)C)NC(=O)[C@H](C)N(C)C(=O)[C@H](CCCNC(=N)N)NC(=O)[C@H](Cc2ccc(-c3ccccc3)cc2)NC(=O)[C@H](C(C)C)NC(=O)[C@H](Cc2c[nH]c3ccccc23)NC(=O)[C@H](CC(=O)O)NC(=O)[C@H](Cc2ccc(O)c([N+](=O)[O-])c2)NC(=O)[C@H](Cc2ccccc2)NC(=O)CSC[C@@H](C(=O)N[C@@H](C)C(N)=O)NC(=O)[C@H]([C@@H](C)O)NC(=O)[C@H](C(C)C)NC1=O [Compound 1095] ({CH2CO}-F[Tyr(3-NO2)]DWV[Bip]R[NMeA][dL]RLVTCA-NH2; thioether N-14) | 0.15
10 | Cc1cccc(C[C@@H]2NC(=O)[C@H](CC(=O)O)NC(=O)[C@H](Cc3ccc(OCC(=O)O)cc3)NC(=O)[C@H](CN)NC(=O)CSC[C@@H](C(N)=O)NC(=O)[C@H]([C@@H](C)O)NC(=O)[C@H](C(C)C)NC(=O)[C@H](CC3CCCCC3)NC(=O)[C@H](CCN)NC(=O)[C@@H](CC(C)C)NC(=O)[C@H](C)N(C)C(=O)[C@H](Cc3ccc(OCC(=O)O)cc3)NC(=O)[C@H](Cc3ccc(-c4ccccc4)cc3)NC(=O)[C@H](Cc3ccc(OCC(=O)O)cc3)NC2=O)c1 [Compound 1650] ({CH2CO}-[Dap]Y(Carboxymethyl)D[Phe(3-Me)]Y(Carboxymethyl)[Bip]Y(Carboxymethyl)[NMeA][dL][Dab][Cha]VTC-NH2; thioether N-14) | 0.08
11 | CC(C)C[C@@H]1NC(=O)[C@H](CCN)NC(=O)[C@@H](CC(C)C)NC(=O)[C@H](C)N(C)C(=O)[C@H](CCCNC(N)=O)NC(=O)[C@H](Cc2ccc(-c3ccccc3)cc2)NC(=O)[C@H](C(C)C)NC(=O)[C@H](Cc2c[nH]c3ccccc23)NC(=O)[C@H](CC(=O)O)NC(=O)[C@H](Cc2cccc(C#N)c2)NC(=O)[C@H](CN)NC(=O)CSC[C@@H](C(=O)N[C@@H](C)C(N)=O)NC(=O)[C@H]([C@@H](C)O)NC(=O)[C@H](C(C)C)NC1=O [Compound 1403] ({CH2CO}-[Dap][Phe(3-CN)]DWV[Bip][Cit][NMeA][dL][Dab]LVTCA-NH2; thioether N-14) | 0.13
12 | CC(C)C[C@@H]1NC(=O)[C@H](CCCNC(=N)N)NC(=O)[C@@H](CC(C)C)NC(=O)[C@H](C)N(C)C(=O)[C@H](CCC(=O)O)NC(=O)[C@H](Cc2ccc(-c3ccccc3)cc2)NC(=O)[C@H](C(C)C)NC(=O)[C@H](Cc2c[nH]c3ccccc23)NC(=O)[C@H](CC(=O)O)NC(=O)[C@H](Cc2ccc(O)cc2)NC(=O)[C@H](CC(N)=O)NC(=O)CSC[C@@H](C(=O)N[C@@H](C)C(N)=O)NC(=O)[C@H](CCCN)NC(=O)[C@H](C(C)C)NC1=O [Compound 1250] ({CH2CO}-NYDWV[Bip]E[NMeA][dL]RLV[Orn]CA-NH2; thioether N-14) | 0.07
13 | CC(C)C[C@@H]1NC(=O)[C@H](Cc2c[nH]c3ccccc23)NC(=O)[C@H](CC(=O)O)NC(=O)[C@H](Cc2ccncc2)NC(=O)[C@H](CN)NC(=O)CSC[C@@H](C(=O)NCC(N)=O)NC(=O)[C@H](CO)NC(=O)[C@H](C(C)C)NC(=O)[C@H](CC(C)C)NC(=O)[C@H](CC(N)=O)NC(=O)[C@@H](CC(C)C)NC(=O)[C@H](C)N(C)C(=O)[C@H](C(C)C)NC(=O)[C@H](Cc2ccc(-c3ccccc3)cc2)NC1=O [Compound 1549] ({CH2CO}-[Dap][4Pal]DWL[Bip]V[NMeA][dL]NLVSCG-NH2; thioether N-14) | 0.04
14 | CC[C@H](C)[C@@H]1NC(=O)[C@H](Cc2ccc(-c3ccccc3)cc2)NC(=O)[C@H](C(C)C)NC(=O)[C@H](Cc2c[nH]c3ccccc23)NC(=O)[C@H](CC(=O)O)NC(=O)[C@H](Cc2ccc(O)cc2)NC(=O)[C@H](CCC(N)=O)NC(=O)CSC[C@@H](C(=O)N[C@@H](C)C(N)=O)NC(=O)[C@H]([C@@H](C)O)NC(=O)[C@H](C(C)C)NC(=O)[C@H](CC(C)C)NC(=O)[C@H](CCN)NC(=O)[C@@H](CC(C)C)NC(=O)[C@H](C)N(C)C1=O [Compound 1391] ({CH2CO}-QYDWV[Bip]I[NMeA][dL][Dab]LVTCA-NH2; thioether N-14) | 0.03
15 | Cc1cccc(C[C@@H]2NC(=O)[C@H](CC(=O)O)NC(=O)[C@H](Cc3ccc(OCC(=O)O)cc3)NC(=O)[C@H](CN)NC(=O)CSC[C@@H](C(N)=O)NC(=O)[C@H](CCC(=O)O)NC(=O)[C@H](C(C)C)NC(=O)[C@H](CC3CCCCC3)NC(=O)[C@H](CCN)NC(=O)[C@@H](CC(C)C)NC(=O)[C@H](C)N(C)C(=O)[C@H](Cc3ccc(OCC(=O)O)cc3)NC(=O)[C@H](Cc3ccc(-c4ccccc4)cc3)NC(=O)[C@H](Cc3ccc(OCC(=O)O)cc3)NC2=O)c1 [Compound 1651] ({CH2CO}-[Dap]Y(Carboxymethyl)D[Phe(3-Me)]Y(Carboxymethyl)[Bip]Y(Carboxymethyl)[NMeA][dL][Dab][Cha]VEC-NH2; thioether N-14) | 0.1
